{"source": "paper PMC4855831", "about": "“Cloning, expression and characterization of a β-D-xylosidase from Lactobacillus rossiae DSM 15814^T” (Microbial Cell Factories, 2016)", "biological_target": "T1, XylA (β-D-xylosidase, LROS_1108) (Furfurilactobacillus rossiae, UniProt A0A0R1REJ8)", "T1 construct": "gene FD35_GL000933; host Lactococcus lactis subsp. cremoris NZ9000; crude cell extract; from primers N-terminus MKIQNPVL, C-terminus KELPETK; EC 3.2.1.37", "T1 sequence (A0A0R1REJ8 entry or part of it)": "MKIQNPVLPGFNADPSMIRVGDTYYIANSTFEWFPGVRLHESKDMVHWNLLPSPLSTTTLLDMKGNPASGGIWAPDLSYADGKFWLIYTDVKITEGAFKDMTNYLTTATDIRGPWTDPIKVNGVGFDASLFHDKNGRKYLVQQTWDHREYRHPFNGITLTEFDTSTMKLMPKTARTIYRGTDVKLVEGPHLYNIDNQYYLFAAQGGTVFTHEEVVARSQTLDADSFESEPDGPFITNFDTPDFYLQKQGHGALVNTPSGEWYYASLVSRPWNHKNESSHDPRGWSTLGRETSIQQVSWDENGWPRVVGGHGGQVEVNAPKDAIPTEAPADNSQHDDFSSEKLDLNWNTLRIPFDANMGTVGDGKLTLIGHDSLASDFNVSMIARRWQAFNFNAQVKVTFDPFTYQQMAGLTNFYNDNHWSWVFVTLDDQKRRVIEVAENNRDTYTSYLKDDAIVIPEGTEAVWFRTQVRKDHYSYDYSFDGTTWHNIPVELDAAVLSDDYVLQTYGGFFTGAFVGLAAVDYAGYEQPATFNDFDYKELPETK", "assay": "p-nitrophenol release at […] nm, XylA-containing crude cell extract", "format": "biochemical", "settings": "5 mM pNPX, 50 mM phosphate buffer pH 5.7, 37.5 °C, 10 min"}
{"smiles": "O=[N+]([O-])c1ccc(O[C@@H]2OC[C@@H](O)[C@H](O)[C@H]2O)cc1", "note": "[p-nitrophenyl-β-D-xylopyranoside]", "values": [{"measurement": "p-nitrophenol release at 410 nm, XylA-containing crude cell extract", "result": "amount of p-nitrophenol (pNP) released from p-nitrophenyl-β-D-xylopyranoside (pNPX) substrate"}]}
